Values after ≈ are worked out from the molar mass of the structure shown. Where two headings read alike, the source gives them in different places.
Columns and labels:
[1] = tested on: methicillin-sensitive S. aureus (MSSA); assay: MIC by broth microdilution, MSSA isolates; format: cell-based; details: Staphylococcus aureus
Method: All of the bacterial strains used in this study were obtained from the Collection Centre of Pathogen Microorganism of Chinese Academy of Medical Sciences (CAMS-CCPM-A) in China. All of the isolates were stored at −80 °C and streaked on tryptic soy agar (TSA) plates to obtain overnight cultures. The MICs of the test compounds were determined by the broth microdilution method in accordance with the Clinical and Laboratory Standards Institute (CLSI) guidelines.[20] Cation-adjusted Mueller-Hinton broth (CAMHB) was used as the growth medium for MIC assays. Briefly, 100 μL of serially diluted compounds (starting concentrations were 64 μg/mL) in CAMH broth were added to the wells of 96-well microtiter plates. Then, 10 µL of 5 × 10^6 CFU/mL bacterial culture was added to each well. […] The MIC was defined as the lowest concentration of a compound that inhibited visual growth of the bacteria. Vancomycin was set as the positive control for this assay.

[2] = Mouse microsomal stability assay; format: in vitro ADME; details: mouse, microsomes, pH 7.4
Method: The mouse liver microsomes were purchased from BioreclamationIVT and stored at −80 °C. The working solutions (0.2 mM) of the control compound, i.e. dextromethorphan, and the test compound dissolved in DMSO were prepared. Terfenadine (5 ng/mL) and tolbutamide (10 ng/mL) dissolved in acetonitrile were used as two quenching solutions. NADPH was dissolved in the phosphate buffer (50 mM K2HPO4, pH 7.4) at 5 mM. The mouse liver microsomes were thawed at 37 °C. The concentration of the stock solution was 20 mg/mL. The working solution (0.629 mg/mL) was prepared by dilution in phosphate buffer.
The working solution of the control/test compound (1.5 µL) was mixed with the liver microsome working solution (238.5 µL) in a 96-well plate and pre-incubated at 37 °C for 5 min. The 5 mM NADPH working solution (60 µL) was added to the solution to initiate the metabolic reaction. At each time point (0, 5, 15, 30, and 60 for the control/test compound), 30 µL of the reaction mixture was sampled and moved to 300 µL of quenching solutions. When the sampling was done, each sample was centrifuged at 4000 rpm at 4 °C for 15 min. The supernatant was analysed with the same HPLC system as the plasma stability assay. The residues (%) of the test/control compound along with the incubation time were calculated based on which the half-life (t1/2) value was determined.

## CCCCCc1nc2ccccc2c(=O)n1NC(=O)c1c(O)c2ccccc2n(CC)c1=O [f1, N-(4-oxo-2-pentylquinazolin-3(4H)-yl)-1-ethyl-4-hydroxy-2-oxo-1,2-dihydroquinoline-3-carboxamide]
[1]; ATCC 29213 / BAA-1708 / BAA-976 / MSSA, ATCC 29213, 15, 18-3, BAA976, BAA1708, span over isolates, read-out: MIC over the five MSSA isolates
  MIC: 4 to 8 µg/mL (≈ 8.96 to 17.9 µM)
[1]; ATCC 29213 / MSSA, MSSA ATCC 29213, read-out: MIC
  MIC: 4 µg/mL (≈ 8.96 µM)
[1]; BAA-976 / MSSA, MSSA BAA976, read-out: MIC
  MIC: 4 µg/mL (≈ 8.96 µM)
[1]; BAA-1708 / MSSA, MSSA BAA1708, read-out: MIC
  MIC: 4 µg/mL (≈ 8.96 µM)
[1]; MSSA, MSSA 15, read-out: MIC
  MIC: 8 µg/mL (≈ 17.9 µM)
[1]; MSSA, MSSA 18-3, read-out: MIC
  MIC: 4 µg/mL (≈ 8.96 µM)
[2]
  half-life at 1 µM: 24.5 min
